Earlier results in patent US20190249218A1, “Method, Medium and Kit for Detecting Multiple Aminoglycoside Resistance Including 16S rRNA Methylase Mediated Resistance in Gram-Negative Bacteria” (priority 2016, published 2019).

Assays:
[1] = test system: aminoglycoside modifying enzymes such as the nucleotidyl, acetyl and phosphoryl enzymes; conditions: reference (12); cited from earlier work
[2] = test system: 16S rRNA methylase producers; conditions: reference (13); cited from earlier work

In the case of `CN[C@@H]1[C@@H](O)[C@@H](O[C@@H]2[C@@H](O)[C@H](O[C@H]3OC(CNCCO)=CC[C@H]3N)[C@@H](N)C[C@H]2NC(=O)[C@@H](O)CCN)OC[C@]1(C)O` [Plazomicin], the “activity against aminoglycoside modifying enzymes” value [1] is listed as “active” and the “activity against 16S rRNA methylase producers” value [2] is listed as “inactive”.
